Key:
[1] = test system: athymic rat model of PAH; assay: SU5416 athymic nude rat model of PAH (PH); format: in vivo; settings: for reversal of established PH / PH-related death: treatment started 21 days (3 wk) after SU5416, doses as in b355, assessed at wk 5
Experimental: (§1) In the model, PH was first initiated by a single injection of a VEGFR2 inhibitor, SU5416, and monitored by weekly echocardiography. Survival of the animals was recorded on daily basis. […] After 5 weeks (day 35), animals were sacrificed after right heart catheterization. […] Oral availability of ubenimex was determined by pharmacokinetic analysis.
The athymic nude rat model is an accepted model of severe PAH associated with immune dysregulation. Athymic nude rats (rnu/rnu) (Charles River Laboratories) were used for these studies. Six to eight week old animals were injected subcutaneously (s.c.) with a single dose of either SU5416 (SU) (10 mg/kg) dissolved in DMSO or DMSO (vehicle) alone. All animals were maintained in normoxic conditions. PH progression was monitored by weekly echocardiography (ECHO). Survival of rats was monitored out to wk 5 when they underwent a terminal right heart catheterization. PH was confirmed by ECHO. Hemodynamic measurements included right ventricular systolic pressure (RVSP) determined by right heart catheterization and right ventricular hypertrophy (RVH) determined by the weight ratio of RV/(LV+S) (right ventricle/(left ventricle+septum)).
All animals were sacrificed 5 wk after SU administration for hemodynamic measurements. […] Serial improvement was observed from the time of treatment initiation. Interval improvement was manifested by decreasing RV wall thickness and increasing pulmonary artery acceleration times (PAAT) after initiation of treatment. […] Here again, the compound of Formula III was notable: treatment with that compound yielded an RVH ratio of 0.29. RVH for healthy rats is generally about 0.25.

[2] = test system: model of rodent PH utilizing SU and exposure to chronic hypoxia; assay: Rodent PH model utilizing SU and chronic hypoxia (animals not prone to immune dysregulation); format: in vivo; settings: therapy initiated late in disease development
[3] = Pharmacokinetic analysis of oral ubenimex formulation; format: in vivo, rat; settings: PEG-400/HPCD formulation
Experimental: as §1
(not a statin-derivative), is a well-tolerated LTA4H inhibitor that blocks LTB4 formation. […] Ubenimex efficacy in reversing PAH was dose-dependent. The sustained release oral formulation was absorbed rapidly within 2-3 hours and was eliminated from the body with a T1/2 of 12 hours.
A 20% (w/v) aqueous solution of hydroxypropyl-β-cyclodextrin (HPCD) was added to the mixture to bring the volume to 50 ml.

CC(C)C[C@H](NC(=O)[C@@H](O)[C@H](N)Cc1ccccc1)C(=O)O [ubenimex, (2S)-2-[[(2S,3R)-3-amino-2-hydroxy-4-phenylbutanoyl]amino]-4-methylpentanoic acid]
accumulation of 5-LO expressing periarteriolar macrophages and B cells in lungs ([1]; SU-treated athymic rats): significantly reduced
in vivo PAEC apoptosis ([1]; SU-treated athymic rats): reduced
improvement in RVSP, RVH and survival ([1]; oral once a day 0.25, 0.5, 0.75, 1 mg/kg, from 3 weeks after SU5416 for 2 weeks): dose dependent improvement
prevention of PH development and survival ([1]; systemic therapy initiated when SU was first administered): very effectively prevented PH development and prolonged survival
reversal of established PH / PH-related death [1]: reverses established PH
reversal of established PH / PH-related death ([1]; listed as Ubenimex): dose-dependent
response of PH animals to therapy [2]: did not respond
time of absorption [3]: ≤ 2 h
half-life ([3]; athymic, rat, in vivo): 12 h

From US9861601B2 (The Board of Trustees of the Leland Stanford Junior …, priority 2012, dated 2018)
